Results taken from patent US20020137929A1, “1 - (3-heterocyclylphenyl) isothiourea, -isourea, -guanidine and -amidine herbicidal agents” (Intellectual Property Department, BASF Aktiengesellschaft, priority 1998, published 2002).

Assays:
[1] = tested on: GALAP (Galium); experiment: Postemergence herbicidal evaluation; format: in vivo, Galium aparine; details: postemergence
Procedure, shortened: (§1)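 First, seedlings were raised for around two weeks. Next, test material in 50/50 acetone/water containing 0.5% TWEEN 20 was sprayed through a nozzle at 40 psi, equivalent to about 0.0156–0.500 kg/ha. Finally, after 4–5 weeks in the greenhouse, plants were rated 0–9.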

[2] = tested on: IPOHE (Morningglory, Ivyleaf); experiment: Postemergence herbicidal evaluation; format: in vivo, Ipomoea hederacea; details: postemergence
Procedure, shortened: as §1

[3] = tested on: SETVI (Foxtail, Green); experiment: Postemergence herbicidal evaluation; format: in vivo, Setaria viridis; details: postemergence
Procedure, shortened: as §1

[4] = tested on: TRZAWR (Wheat, Winter, cv Riband); experiment: Postemergence herbicidal evaluation; format: in vivo, Triticum aestivum; details: postemergence
Procedure, shortened: as §1

[5] = tested on: ABUTH (Velvetleaf); experiment: Preemergence herbicidal evaluation; format: in vivo, Abutilon theophrasti; details: rated 4-5 weeks after treatment
Procedure, shortened: (§2)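 Sown cups got a single aqueous acetone spray of test compound (roughly 0.0156–0.500 kg/ha) before seedlings emerged. Evaluation, 4–5 weeks on, used a 0–9 visual scale covering plant stand, vigor, size, malformation, chlorosis and general appearance compared with controls.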

[6] = tested on: IPOHE (Morningglory, Ivyleaf); experiment: Preemergence herbicidal evaluation; format: in vivo, Ipomoea hederacea; details: rated 4-5 weeks after treatment
Procedure, shortened: as §2

[7] = tested on: ECHCG (Barnyardgrass); experiment: Preemergence herbicidal evaluation; format: in vivo, Echinochloa crus-galli; details: rated 4-5 weeks after treatment
Procedure, shortened: as §2

[8] = tested on: SETVI (Foxtail, Green); experiment: Preemergence herbicidal evaluation; format: in vivo, Setaria viridis; details: rated 4-5 weeks after treatment
Procedure, shortened: as §2

[9] = tested on: ZEAMX (Corn, Field); experiment: Preemergence herbicidal evaluation; format: in vivo, Zea mays; details: rated 4-5 weeks after treatment
Procedure, shortened: as §2

[10] = tested on: ECHORC (Watergrass (Calif.)); experiment: Preemergence weed control under flooded paddy conditions; format: in vivo, Echinochloa oryzoides; details: rated 3-4 weeks after treatment
Procedure, shortened: (§3)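 First, seeds or propagules go into the top 0.5 cm of silt loam; next, water is held 1.5 to 3 cm over the soil; then compound (50/50 acetone/water) is pipetted into it at about 0.0313 to 0.500 kg/ha; finally plants are rated visually 0-9 after three to four weeks.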

[11] = tested on: CYPIR (Rice Flatsedge); experiment: as above; format: in vivo, Cyperus iria; details: rated 3-4 weeks after treatment
Procedure, shortened: as §3

[12] = tested on: ECHORC (Watergrass (Calif.)); experiment: Postemergence weed control under flooded paddy conditions; format: in vivo, Echinochloa oryzoides; details: postemergence weeds, rated 3 to 4 weeks after treatment
Procedure, shortened: (§4)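 Herbicidal effect is judged by eye on a 0–9 scale versus control, 3–4 weeks after dosing. Dosing is into flood water kept 1.5–3 cm over the soil, at about 0.0313–0.500 kg/ha in aqueous/acetone 50/50 v/v, on 3–5 cm weeds and 1.5–2.5-leaf rice seedlings.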

[13] = tested on: SAGPY (Arrowhead (Pygmaea)); experiment: as above; format: in vivo, Sagittaria pygmaea; details: postemergence weeds, rated 3 to 4 weeks after treatment
Procedure, shortened: as §4

CC(C)C[C@@H](C(=O)O)N1C(=O)CSC1=Nc1cc(-n2c(=O)cc(C(F)(F)F)n(C)c2=O)c(F)cc1Cl [Compound 71, α-Isobutyl-2-{{2-chloro-5-[3,6-dihydro-3-methyl-2,6-dioxo-4-(trifluoromethyl)-1(2H)-pyrimidinyl]-4-fluorophenyl}imino}-4-oxo-3-thiazolidineacetic acid, L-]
GALAP herbicidal rating ([1]; rate 0.0158 kg/ha): 4.0 | GALAP herbicidal rating ([1]; rate 0.0315 kg/ha): 6.0 | GALAP herbicidal rating ([1]; rate 0.0630 kg/ha): 7.0 | IPOHE herbicidal rating ([2]; rate 0.0158 kg/ha): 9.0 | IPOHE herbicidal rating ([2]; rate 0.0315 kg/ha): 9.0 | IPOHE herbicidal rating ([2]; rate 0.0630 kg/ha): 9.0 | SETVI herbicidal rating ([3]; rate 0.0158 kg/ha): 4.0 | SETVI herbicidal rating ([3]; rate 0.0315 kg/ha): 7.0 | SETVI herbicidal rating ([3]; rate 0.0630 kg/ha): 9.0 | TRZAWR herbicidal rating ([4]; rate 0.0158 kg/ha): 2.5 | TRZAWR herbicidal rating ([4]; rate 0.0315 kg/ha): 3.5 | TRZAWR herbicidal rating ([4]; rate 0.0630 kg/ha): 4.5 | Preemergence herbicidal rating ABUTH ([5]; rate 0.0156 kg/ha): 1.0 | Preemergence herbicidal rating ABUTH ([5]; rate 0.0313 kg/ha): 9.0 | Preemergence herbicidal rating ABUTH ([5]; rate 0.0625 kg/ha): 9.0 | Preemergence herbicidal rating ABUTH ([5]; rate 0.1250 kg/ha): 9.0 | Preemergence herbicidal rating ABUTH ([5]; rate 0.2500 kg/ha): 9.0 | Preemergence herbicidal rating IPOHE ([6]; rate 0.0156 kg/ha): 0.0 | Preemergence herbicidal rating IPOHE ([6]; rate 0.0313 kg/ha): 0.0 | Preemergence herbicidal rating IPOHE ([6]; rate 0.0625 kg/ha): 0.0 | Preemergence herbicidal rating IPOHE ([6]; rate 0.1250 kg/ha): 9.0 | Preemergence herbicidal rating IPOHE ([6]; rate 0.2500 kg/ha): 9.0 | Preemergence herbicidal rating ECHCG ([7]; rate 0.0156 kg/ha): 0.0 | Preemergence herbicidal rating ECHCG ([7]; rate 0.0313 kg/ha): 0.0 | Preemergence herbicidal rating ECHCG ([7]; rate 0.0625 kg/ha): 0.0 | Preemergence herbicidal rating ECHCG ([7]; rate 0.1250 kg/ha): 2.0 | Preemergence herbicidal rating ECHCG ([7]; rate 0.2500 kg/ha): 4.0 | Preemergence herbicidal rating SETVI ([8]; rate 0.0156 kg/ha): 0.0 | Preemergence herbicidal rating SETVI ([8]; rate 0.0313 kg/ha): 0.0 | Preemergence herbicidal rating SETVI ([8]; rate 0.0625 kg/ha): 0.0 | Preemergence herbicidal rating SETVI ([8]; rate 0.1250 kg/ha): 4.0 | Preemergence herbicidal rating SETVI ([8]; rate 0.2500 kg/ha): 9.0 | Preemergence herbicidal rating ZEAMX ([9]; rate 0.0156 kg/ha): 0.0 | Preemergence herbicidal rating ZEAMX ([9]; rate 0.0313 kg/ha): 0.0 | Preemergence herbicidal rating ZEAMX ([9]; rate 0.0625 kg/ha): 0.0 | Preemergence herbicidal rating ZEAMX ([9]; rate 0.1250 kg/ha): 3.0 | Preemergence herbicidal rating ZEAMX ([9]; rate 0.2500 kg/ha): 3.0 | ECHORC herbicidal effect rating ([10]; 0.1250 kg/ha): 0.0 | ECHORC herbicidal effect rating ([10]; 0.2500 kg/ha): 7.0 | CYPIR herbicidal effect rating ([11]; 0.1250 kg/ha): 3.0 | CYPIR herbicidal effect rating ([11]; 0.2500 kg/ha): 7.0 | Herbicidal rating ECHORC ([12]; Rate 0.1250 kg/ha): 0.0 | Herbicidal rating ECHORC ([12]; Rate 0.2500 kg/ha): 7.0 | Herbicidal rating SAGPY ([13]; Rate 0.1250 kg/ha): 0.0 | Herbicidal rating SAGPY ([13]; Rate 0.2500 kg/ha): 0.0

C[C@@H](C(=O)OC(C)(C)C)N1C(=O)CSC1=Nc1cc(-n2c(=O)cc(C(F)(F)F)n(C)c2=O)c(F)cc1Cl [Compound 75, tert-Butyl 2-{{2-chloro-5-[3,6-dihydro-3-methyl-2,6-dioxo-4-(trifluoromethyl)-1(2H)-pyrimidinyl]-4-fluorophenyl}imino}-α-methyl-4-oxo-3-thiazolidineacetate, L-]
GALAP herbicidal rating ([1]; rate 0.0158 kg/ha): 1.0 | GALAP herbicidal rating ([1]; rate 0.0315 kg/ha): 2.0 | GALAP herbicidal rating ([1]; rate 0.0630 kg/ha): 5.0 | IPOHE herbicidal rating ([2]; rate 0.0158 kg/ha): 7.0 | IPOHE herbicidal rating ([2]; rate 0.0315 kg/ha): 7.0 | IPOHE herbicidal rating ([2]; rate 0.0630 kg/ha): 9.0 | SETVI herbicidal rating ([3]; rate 0.0158 kg/ha): 1.0 | SETVI herbicidal rating ([3]; rate 0.0315 kg/ha): 5.0 | SETVI herbicidal rating ([3]; rate 0.0630 kg/ha): 3.0 | TRZAWR herbicidal rating ([4]; rate 0.0158 kg/ha): 2.5 | TRZAWR herbicidal rating ([4]; rate 0.0315 kg/ha): 2.5 | TRZAWR herbicidal rating ([4]; rate 0.0630 kg/ha): 2.5 | Preemergence herbicidal rating ABUTH ([5]; rate 0.0156 kg/ha): 0.0 | Preemergence herbicidal rating ABUTH ([5]; rate 0.0313 kg/ha): 0.0 | Preemergence herbicidal rating ABUTH ([5]; rate 0.0625 kg/ha): 9.0 | Preemergence herbicidal rating ABUTH ([5]; rate 0.1250 kg/ha): 9.0 | Preemergence herbicidal rating ABUTH ([5]; rate 0.2500 kg/ha): 9.0 | Preemergence herbicidal rating IPOHE ([6]; rate 0.0156 kg/ha): 0.0 | Preemergence herbicidal rating IPOHE ([6]; rate 0.0313 kg/ha): 0.0 | Preemergence herbicidal rating IPOHE ([6]; rate 0.0625 kg/ha): 0.0 | Preemergence herbicidal rating IPOHE ([6]; rate 0.1250 kg/ha): 0.0 | Preemergence herbicidal rating IPOHE ([6]; rate 0.2500 kg/ha): 2.0 | Preemergence herbicidal rating ECHCG ([7]; rate 0.0156 kg/ha): 0.0 | Preemergence herbicidal rating ECHCG ([7]; rate 0.0313 kg/ha): 0.0 | Preemergence herbicidal rating ECHCG ([7]; rate 0.0625 kg/ha): 0.0 | Preemergence herbicidal rating ECHCG ([7]; rate 0.1250 kg/ha): 0.0 | Preemergence herbicidal rating ECHCG ([7]; rate 0.2500 kg/ha): 2.0 | Preemergence herbicidal rating SETVI ([8]; rate 0.0156 kg/ha): 0.0 | Preemergence herbicidal rating SETVI ([8]; rate 0.0313 kg/ha): 0.0 | Preemergence herbicidal rating SETVI ([8]; rate 0.0625 kg/ha): 0.0 | Preemergence herbicidal rating SETVI ([8]; rate 0.1250 kg/ha): 9.0 | Preemergence herbicidal rating SETVI ([8]; rate 0.2500 kg/ha): 9.0 | Preemergence herbicidal rating ZEAMX ([9]; rate 0.0156 kg/ha): 0.0 | Preemergence herbicidal rating ZEAMX ([9]; rate 0.0313 kg/ha): 0.0 | Preemergence herbicidal rating ZEAMX ([9]; rate 0.0625 kg/ha): 0.0 | Preemergence herbicidal rating ZEAMX ([9]; rate 0.1250 kg/ha): 1.0 | Preemergence herbicidal rating ZEAMX ([9]; rate 0.2500 kg/ha): 3.0 | ECHORC herbicidal effect rating ([10]; 0.0313 kg/ha): 6.0 | ECHORC herbicidal effect rating ([10]; 0.0625 kg/ha): 6.0 | ECHORC herbicidal effect rating ([10]; 0.1250 kg/ha): 9.0 | ECHORC herbicidal effect rating ([10]; 0.2500 kg/ha): 9.0 | CYPIR herbicidal effect rating ([11]; 0.0313 kg/ha): 0.0 | CYPIR herbicidal effect rating ([11]; 0.0625 kg/ha): 0.0 | CYPIR herbicidal effect rating ([11]; 0.1250 kg/ha): 6.0 | CYPIR herbicidal effect rating ([11]; 0.2500 kg/ha): 6.0 | Herbicidal rating ECHORC ([12]; Rate 0.0313 kg/ha): 6.0 | Herbicidal rating ECHORC ([12]; Rate 0.0625 kg/ha): 6.0 | Herbicidal rating ECHORC ([12]; Rate 0.1250 kg/ha): 9.0 | Herbicidal rating ECHORC ([12]; Rate 0.2500 kg/ha): 9.0 | Herbicidal rating SAGPY ([13]; Rate 0.0313 kg/ha): 0.0 | Herbicidal rating SAGPY ([13]; Rate 0.0625 kg/ha): 0.0 | Herbicidal rating SAGPY ([13]; Rate 0.1250 kg/ha): 0.0 | Herbicidal rating SAGPY ([13]; Rate 0.2500 kg/ha): 3.0
